In one assay the target is T1, Leukotriene D4 Receptor (Cavia porcellus, UniProt Q2NNR5).
T1 construct: guinea pig pulmomembranous protein; from tissue; host or cells: guinea pig lung membranes
T1 sequence (Q2NNR5 1-340): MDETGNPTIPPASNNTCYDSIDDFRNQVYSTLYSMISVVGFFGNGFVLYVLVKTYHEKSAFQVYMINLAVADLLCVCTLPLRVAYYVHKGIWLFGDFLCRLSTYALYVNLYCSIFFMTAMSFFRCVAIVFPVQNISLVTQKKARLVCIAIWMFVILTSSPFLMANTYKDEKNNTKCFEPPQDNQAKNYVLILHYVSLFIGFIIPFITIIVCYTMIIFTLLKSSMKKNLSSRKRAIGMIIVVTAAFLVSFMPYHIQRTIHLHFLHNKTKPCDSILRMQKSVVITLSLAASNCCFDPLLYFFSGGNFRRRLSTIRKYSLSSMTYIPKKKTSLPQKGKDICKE
Kind of assay: Leukotriene D4 Receptor Binding Inhibition Test. On the set-up: species or system guinea pig. To be noted: for inhibition at 10 µM: read-out: LTD4 receptor, inhibition rate (%) at a high concentration. The method, then:
An ice-cold tris hydrochloride/sodium chloride buffer (10 mM/100 mM, pH 7.5) was added to terminate the reaction, followed by immediate filtration through a Wattman CF/C filter. The filter was washed twice with 20 ml aliquots of the ice-cold buffer. The radio-activity of the residue was measured by a liquid scintillation counter. […] Using the Cheng-Prusoff formula, a dissociation constant (KD) was calculated from the IC50.

The test system of assay [1] is isolated guinea pig ileum. Kind of assay: Antileukotriene D4 Action (In vitro Test): isotonic contractive response of isolated ileum to leukotriene D4. Format: cell-based. The settings on record: Cavia porcellus, 0.5 h, Krebs buffer 37° C., 30 minutes incubation with test compound, read-out: Anti-LTD4 action (IC50 value). The method, then:
Antileukotriene D4 Action (In vitro Test)
An isolated guinea pig ileum was cut into about 2 cm lengths. Each ileum piece was suspended in a 20-ml organ bath filled with the Krebs buffer. […] The Krebs buffer was controlled at 37° C., through which a mixed gas (95%O2 -5%CO2) was bubbled. First, leukotriene D4 was added to an organ bath to measure its dose-response. After the ileum piece was washed several times with the buffer, a test compound (will be identified by its example number; this will apply likewise hereinafter) of a predetermined specific concentration was added.

The next assay concerns airway constriction. The settings on record: cited from earlier work.
[2] abbreviates: read-out: LTD4 receptor, dissociation constant KD.

Data on 20 molecules can be found in patent US6046212A, “Chalcone derivatives and drugs containing the same” (Kowa Co., Ltd., priority 1996, dated 2000).

Where a name gives a salt, the structure may show the parent alone. Read-outs that look alike come from different tables or passages of the source.

For the molecule `O=C(O)c1ccc(O)c(C(=O)/C=C/c2ccccc2OCc2ccc3ccccc3n2)c1` [Example 3, 5'-Carboxy-2'-hydroxy-2-[(2-quinolyl)methoxy]chalcone], the inhibition at 10 µM on Leukotriene D4 Receptor came out at 18%.

Regarding `O=C(O)c1ccc(O)c(C(=O)/C=C/c2ccc(OCc3ccccc3)cc2)c1` [Example 4, 4-Benzyloxy-5'-carboxy-2'-hydroxychalcone], the inhibition at 10 µM at Leukotriene D4 Receptor came to 23%.

`O=C(O)c1ccc(O)c(C(=O)/C=C/c2ccccc2OCc2ccccc2)c1` [Example 6, 2-Benzyloxy-5'-carboxy-2'-hydroxychalcone]: the inhibition at 10 µM on Leukotriene D4 Receptor was determined as 0%.

For `O=C(O)c1cccc(C(=O)/C=C/c2ccc(OCc3ccc4ccccc4n3)cc2)c1O` [Example 7, 3'-Carboxy-2'-hydroxy-4-[(2-quinolyl)methoxy]chalcone], the equilibrium dissociation constant (Kd) at Leukotriene D4 Receptor (setting [2]) is 307 nM.

With `O=C(O)c1cc(F)cc(C(=O)/C=C/c2ccc(OCc3ccc4ccccc4n3)cc2)c1O` [Example 8, 3'-Carboxy-5'-fluoro-2'-hydroxy-4-[(2-quinolyl)methoxy]chalcone], the Kd at Leukotriene D4 Receptor (setting [2]) is 396 nM.

For the molecule `O=C(O)c1cc(Cl)cc(C(=O)/C=C/c2ccc(OCc3ccc4ccccc4n3)cc2)c1O` [Example 9, 3'-Carboxy-5'-chloro-2'-hydroxy-4-[(2-quinolyl)methoxy]chalcone], the Kd on Leukotriene D4 Receptor (setting [2]) stood at 732 nM.

Regarding `CCOC(=O)c1ccc(O)c(C(=O)C=Cc2ccc(OCc3ccc4ccccc4n3)cc2)c1` [Example 17], at Leukotriene D4 Receptor, the inhibition at 10 µM amounted to 16%.

For the molecule `O=C(/C=C/c1ccc(OCc2ccc3ccccc3n2)cc1)c1cc(-c2nnn[nH]2)ccc1O` [Example 19, 2'-Hydroxy-4-[(2-quinolyl)-methoxy]-5'-(5-tetrazolyl)-chalcone], the IC50 in assay [1] was found to be 67 nM.

On to `CCOCCn1c(COc2ccc(C=CC(=O)c3cc(-c4nn[nH]n4)ccc3O)cc2)nc2ccccc21` [Example 23], for which, in assay [1], the half-maximal inhibitory concentration (IC50) worked out at 480 nM.

Take `O=C(/C=C/c1ccc(OCc2ccc3ccccc3c2)cc1)c1cc(-c2nnn[nH]2)ccc1O` [Example 26, 2'-Hydroxy-4-(2-naphthyl-methoxy)-5'-(5-tetrazolyl)-chalcone]: on Leukotriene D4 Receptor, the inhibition at 10 µM is 4%.

Regarding `COc1ccc(C(=O)O)cc1C(=O)/C=C/c1ccc(OCc2ccc3ccccc3n2)cc1` [Example 29, 5'-Carboxy-2'-methoxy-4-[(2-quinolyl)methoxy]chalcone], in assay [1], the IC50 is 290 nM.

Consider `CCCCOc1ccc(C(=O)O)cc1C(=O)C=Cc1ccc(OCc2ccc3ccccc3n2)cc1` [Example 32, 2'-n-Butoxy-5'-carboxy-4-(2-quinolylmethoxy)chalcone.HCl], for which, on Leukotriene D4 Receptor, the inhibition at 10 µM was 41%.

With `N#Cc1cccc(C(=O)/C=C/c2ccc(OCc3ccc4ccccc4n3)cc2)c1` [Example 35, 3'-cyano-4-(2-quinolylmethoxy)-chalcone], the inhibition at 10 µM at Leukotriene D4 Receptor was determined as 8%.

With `N#Cc1cccc(C(=O)/C=C/c2cccc(OCc3ccc4ccccc4n3)c2)c1` [Example 36, 3'-Cyano-3-(2-quinolylmethoxy)-chalcone], the inhibition at 10 µM at Leukotriene D4 Receptor stood at 6%.

In the case of `CCOCCn1c(COc2cccc(C=CC(=O)c3ccc(C(=O)O)cc3O)c2)nc2ccccc21` [Example 37, 4'-Carboxy-3-[(1-ethoxyethyl-benzimidazol-2-yl)methoxy]-2'-hydroxychalcone.HCl], the inhibition at 10 µM on Leukotriene D4 Receptor is 26%.

With `O=C(O)c1cccc(C(=O)/C=C/c2cccc(C=Cc3ccc4ccccc4n3)c2)c1O` [Example 40, 3'-carboxy-2'-hydroxy-3-[(2-quinolyl)-ethenyl]chalcone], in assay [1], the IC50 was 120 nM.

For the molecule `N#Cc1ccc(O)c(C(=O)/C=C/c2cccc(OCc3ccc4ccccc4n3)c2)c1` [Example 58, 5'-Cyano-2'-hydroxy-3-[(2-quinolyl)methoxy]chalcone], at Leukotriene D4 Receptor, the inhibition at 10 µM stood at 38%.

For `CCCCC/C=C\C\C=C/C=C/C=C/[C@@H](SC[C@H](NC(=O)CC[C@H](N)C(=O)O)C(=O)NCC(=O)O)[C@@H](O)CCCC(=O)O` [LTC4], the “effects on airway constriction relative to histamine” value in the assay on airway constriction (when inhaled, compared with histamine) is on record as 1,000 times.

Turning to `CCCCC/C=C\C\C=C/C=C/C=C/[C@@H](SC[C@H](N)C(=O)O)[C@@H](O)CCCC(=O)O` [LTE4], the “duration of airway constriction” value in the assay with airway constriction (compared with that caused by the other leukotrienes) was “long lasting”. Also, the “activity compared with the other leukotrienes” value in the assay on airway constriction (compared with the other leukotrienes) was “lower activities”.

Regarding “[^3 H]leukotriene D4 [reference compound]”, the “slope of Hill plot” value at Leukotriene D4 Receptor ([^3 H]leukotriene D4 binding) was 0.99. Further, the Kd at Leukotriene D4 Receptor (read-out: dissociation constant (KD) of [^3 H]leukotriene D4, radioligand, guinea pig pulmomembranous protein) came to 0.262 nM.
